Columns and labels:
PI3K alpha = PI3K alpha (Homo sapiens (Human), UniProt P42336); test: Enzymatic PI3K alpha isoform inhibition (lipid kinase, Kinase-Glo luminescence); type: biochemical; details: enzymatic assay
PI3K delta = PI3K delta (Homo sapiens (Human), UniProt O00329); test: Enzymatic PI3K delta isoform inhibition (lipid kinase, Kinase-Glo luminescence); type: biochemical; details: enzymatic assay
PI3K delta, sequence (O00329 other isoform, or with tags, fused parts or gaps linker GGGGGG): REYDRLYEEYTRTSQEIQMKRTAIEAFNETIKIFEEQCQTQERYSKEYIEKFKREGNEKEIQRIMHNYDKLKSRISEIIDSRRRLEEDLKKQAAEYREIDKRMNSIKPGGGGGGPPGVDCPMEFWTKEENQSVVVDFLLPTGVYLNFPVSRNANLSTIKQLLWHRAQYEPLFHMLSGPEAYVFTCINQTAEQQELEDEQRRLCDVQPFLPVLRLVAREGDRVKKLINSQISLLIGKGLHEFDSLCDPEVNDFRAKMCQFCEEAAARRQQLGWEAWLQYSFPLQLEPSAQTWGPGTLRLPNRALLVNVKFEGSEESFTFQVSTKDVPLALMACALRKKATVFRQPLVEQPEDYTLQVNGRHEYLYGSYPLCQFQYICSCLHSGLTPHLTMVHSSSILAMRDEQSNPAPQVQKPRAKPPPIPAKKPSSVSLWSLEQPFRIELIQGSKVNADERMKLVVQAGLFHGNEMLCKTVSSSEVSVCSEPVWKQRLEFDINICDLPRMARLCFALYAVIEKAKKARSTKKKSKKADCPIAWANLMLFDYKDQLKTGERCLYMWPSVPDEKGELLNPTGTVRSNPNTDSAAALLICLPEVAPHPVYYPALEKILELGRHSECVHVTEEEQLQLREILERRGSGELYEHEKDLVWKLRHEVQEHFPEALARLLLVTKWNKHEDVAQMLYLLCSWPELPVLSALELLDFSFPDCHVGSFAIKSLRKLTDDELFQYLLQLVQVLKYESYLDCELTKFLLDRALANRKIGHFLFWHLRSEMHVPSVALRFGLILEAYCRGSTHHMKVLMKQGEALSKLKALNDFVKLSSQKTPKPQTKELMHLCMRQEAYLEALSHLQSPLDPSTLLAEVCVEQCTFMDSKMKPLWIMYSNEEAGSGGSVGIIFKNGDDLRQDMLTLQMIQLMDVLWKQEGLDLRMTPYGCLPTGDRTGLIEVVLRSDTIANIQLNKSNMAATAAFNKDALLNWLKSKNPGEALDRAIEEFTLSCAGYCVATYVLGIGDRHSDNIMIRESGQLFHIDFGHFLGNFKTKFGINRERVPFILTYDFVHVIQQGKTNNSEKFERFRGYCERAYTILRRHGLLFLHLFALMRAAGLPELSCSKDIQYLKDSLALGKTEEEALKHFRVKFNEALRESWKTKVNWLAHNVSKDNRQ

PI3K alpha, sequence (P42336 other isoform, or with tags, fused parts or gaps): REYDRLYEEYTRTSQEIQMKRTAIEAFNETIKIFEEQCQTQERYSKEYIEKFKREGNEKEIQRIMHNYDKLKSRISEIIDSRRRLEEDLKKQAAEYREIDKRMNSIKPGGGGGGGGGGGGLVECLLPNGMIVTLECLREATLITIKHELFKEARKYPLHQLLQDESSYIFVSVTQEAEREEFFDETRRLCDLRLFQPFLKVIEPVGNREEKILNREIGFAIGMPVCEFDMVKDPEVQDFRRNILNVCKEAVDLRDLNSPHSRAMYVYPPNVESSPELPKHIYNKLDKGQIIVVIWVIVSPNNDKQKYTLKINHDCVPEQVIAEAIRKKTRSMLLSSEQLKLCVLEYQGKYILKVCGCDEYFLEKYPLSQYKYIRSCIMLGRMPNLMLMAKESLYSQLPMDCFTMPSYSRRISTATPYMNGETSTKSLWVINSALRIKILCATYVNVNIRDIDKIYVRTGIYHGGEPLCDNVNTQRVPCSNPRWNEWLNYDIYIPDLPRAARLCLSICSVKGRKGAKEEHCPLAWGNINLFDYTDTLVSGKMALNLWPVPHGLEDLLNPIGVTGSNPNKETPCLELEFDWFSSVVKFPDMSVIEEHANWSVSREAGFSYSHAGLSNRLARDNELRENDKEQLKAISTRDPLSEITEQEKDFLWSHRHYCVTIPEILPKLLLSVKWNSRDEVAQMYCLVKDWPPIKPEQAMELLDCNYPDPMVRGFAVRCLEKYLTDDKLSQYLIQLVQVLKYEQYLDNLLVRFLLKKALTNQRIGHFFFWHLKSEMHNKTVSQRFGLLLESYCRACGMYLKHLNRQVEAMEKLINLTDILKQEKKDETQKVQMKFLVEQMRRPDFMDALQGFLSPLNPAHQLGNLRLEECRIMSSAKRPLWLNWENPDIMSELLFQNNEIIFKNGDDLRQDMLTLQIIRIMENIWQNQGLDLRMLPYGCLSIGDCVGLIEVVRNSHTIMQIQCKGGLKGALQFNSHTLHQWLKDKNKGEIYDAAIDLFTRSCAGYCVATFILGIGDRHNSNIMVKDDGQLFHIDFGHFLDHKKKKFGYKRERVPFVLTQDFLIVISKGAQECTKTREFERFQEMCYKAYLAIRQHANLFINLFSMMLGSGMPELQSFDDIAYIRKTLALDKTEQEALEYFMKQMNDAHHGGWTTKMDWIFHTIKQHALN

| SMILES | IC50 (PI3K alpha) | IC50 (PI3K delta) |
| --- | --- | --- |
| COc1ncc(N2CCc3ncnc(O[C@H]4CCN(C(=O)c5cocn5)C4)c3C2)cc1C(F)(F)F [Example 91, {(S)-3-[6-(6-methoxy-5-trifluoromethyl-pyridin-3-yl)-5,6,7,8-tetrahydro-pyrido[4,3-d]pyrimidin-4-yloxy]-pyrrolidin-1-yl}-oxazol-4-yl-methanone] | 924 nM | 11 nM |
| COc1ncc(N2CCc3ncnc(O[C@H]4CCN(C(=O)c5ccnn5C)C4)c3C2)cc1C(F)(F)F [Example 42, {(S)-3-[6-(6-Methoxy-5-trifluoromethyl-pyridin-3-yl)-5,6,7,8-tetrahydro-pyrido[4,3-d]pyrimidin-4-yloxy]-pyrrolidin-1-yl}-(2-methyl-2H-pyrazol-3-yl)-methanone] | 863 nM | 13 nM |
| COc1ncc(N2CCc3ncnc(O[C@H]4CCN(C(=O)c5ccncc5)C4)c3C2)cc1C(F)(F)F [Example 47, {(S)-3-[6-(6-Methoxy-5-trifluoromethyl-pyridin-3-yl)-5,6,7,8-tetrahydro-pyrido[4,3-d]pyrimidin-4-yloxy]-pyrrolidin-1-yl}-pyridin-4-yl-methanone] | 656 nM | 25 nM |
| COc1cc(N2CCc3ncnc(O[C@H]4CCN(C(=O)c5cocn5)C4)c3C2)cnc1OC [Example 21, {(S)-3-[6-(5,6-Dimethoxy-pyridin-3-yl)-5,6,7,8-tetrahydro-pyrido[4,3-d]pyrimidin-4-yloxy]-pyrrolidin-1-yl}-oxazol-4-yl-methanone] | 320 nM | 8 nM |
| COc1ncc(N2CCc3ncnc(O[C@H]4CCN(C(=O)C5CCS(=O)(=O)CC5)C4)c3C2)cc1C(F)(F)F [Example 39, (1,1-Dioxo-hexahydro-1lambda*6*-thiopyran-4-yl)-{(S)-3-[6-(6-methoxy-5-trifluoromethyl-pyridin-3-yl)-5,6,7,8-tetrahydro-pyrido[4,3-d]pyrimidin-4-yloxy]-pyrrolidin-1-yl}-methanone] | 434 nM | 9 nM |
| COc1ncc(N2CCc3ncnc(N[C@H]4CCN(C(=O)C5CCN(C(C)=O)CC5)C4)c3C2)cc1C(F)(F)F [Example 70, 1-(4-{(S)-3-[6-(6-methoxy-5-trifluoromethyl-pyridin-3-yl)-5,6,7,8-tetrahydro-pyrido[4,3-d]pyrimidin-4-ylamino]-pyrrolidine-1-carbonyl}-piperidin-1-yl)-ethanone] | 121 nM | 6 nM |
| COc1ncc(N2CCc3ncnc(O[C@H]4CCN(C(=O)c5cnco5)C4)c3C2)cc1C [Example 12, {(S)-3-[6-(6-Methoxy-5-methyl-pyridin-3-yl)-5,6,7,8-tetrahydro-pyrido[4,3-d]pyrimidin-4-yloxy]-pyrrolidin-1-yl}-oxazol-5-yl-methanone] | 952 nM | 12 nM |
| COc1ncc(N2CCc3ncnc(O[C@H]4CCN(C(=O)C5CC(OC)C5)C4)c3C2)cc1C (stereo partly drawn) [Example 15, (3-Methoxy-cyclobutyl)-{(S)-3-[6-(6-methoxy-5-methyl-pyridin-3-yl)-5,6,7,8-tetrahydro-pyrido[4,3-d]pyrimidin-4-yloxy]-pyrrolidin-1-yl}-methanone] | 1630 nM | 14 nM |
| COc1ncc(N2CCc3ncnc(O[C@H]4CCN(C(=O)c5cncs5)C4)c3C2)cc1C(F)(F)F [Example 41, {(S)-3-[6-(6-Methoxy-5-trifluoromethyl-pyridin-3-yl)-5,6,7,8-tetrahydro-pyrido[4,3-d]pyrimidin-4-yloxy]-pyrrolidin-1-yl}-thiazol-5-yl-methanone] | 515 nM | 14 nM |
| COc1ncc(N2CCc3ncnc(O[C@H]4CCN(C(=O)C5CCOCC5)C4)c3C2)cc1C(F)(F)F [Example 61, {(S)-3-[6-(6-Methoxy-5-trifluoromethyl-pyridin-3-yl)-5,6,7,8-tetrahydro-pyrido[4,3-d]pyrimidin-4-yloxy]-pyrrolidin-1-yl}-(tetrahydro-pyran-4-yl)-methanone] | 589 nM | 12 nM |
| COc1ncc(N2CCc3ncnc(N[C@H]4CCN(C(=O)c5cnco5)C4)c3C2)cc1C(F)(F)F [Example 72, {(S)-3-[6-(6-Methoxy-5-trifluoromethyl-pyridin-3-yl)-5,6,7,8-tetrahydro-pyrido[4,3-d]pyrimidin-4-ylamino]-pyrrolidin-1-yl}-oxazol-5-yl-methanone] | 93 nM | 4 nM |

Further molecules by falling IC50 (PI3K alpha), results first:

| IC50 (PI3K alpha) | IC50 (PI3K delta) | SMILES |
| --- | --- | --- |
| 3330 nM | 45 nM | O=C(C1CCOCC1)N1CC[C@H](Oc2ncnc3c2CN(c2cnc4ccccc4c2)CC3)C1 [Example 60, [(S)-3-(6-Quinolin-3-yl-5,6,7,8-tetrahydro-pyrido[4,3-d]pyrimidin-4-yloxy)-pyrrolidin-1-yl]-(tetrahydro-pyran-4-yl)-methanone] |
| 3310 nM | 16 nM | COc1ncc(N2CCc3ncnc(O[C@H]4CCN(C(=O)C5CCOC(C)(C)C5)C4)c3C2)cc1C (stereo partly drawn) [Example 38, (2,2-Dimethyl-tetrahydro-pyran-4yl)-{(S)-3-[6-(6-Methoxy-5-methyl-pyridin-3-yl)-5,6,7,8-tetrahydro-pyrido[4,3-d]pyrimidin-4-yloxy]-pyrrolidin-1-yl}-methanone] |
| 2580 nM | 11 nM | COc1ncc(N2CCc3ncnc(O[C@H]4CCN(C(=O)C5CCOC(C)(C)C5)C4)c3C2)cc1C#N (stereo partly drawn) [Example 29, 5-{4-[(S)-1-(2,2-Dimethyl-tetrahydro-pyran-4-carbonyl)-pyrrolidin-3-yloxy]-7,8-dihydro-5H-pyrido[4,3-d]pyrimidin-6-yl}-2-methoxy-nicotinonitrile] |
| 2330 nM | 32 nM | CCC(=O)N1CC[C@H](Oc2ncnc3c2CN(c2cnc(OC)c(C#N)c2)CC3)C1 [Example 64, 2-Methoxy-5-[4-((S)-1-propionyl-pyrrolidin-3-yloxy)-7,8-dihydro-5H-pyrido[4,3-d]pyrimidin-6-yl]-nicotinonitrile] |
| 1200 nM | 11 nM | COc1ncc(N2CCc3ncnc(O[C@H]4CCN(C(=O)c5ccoc5)C4)c3C2)cc1C [Example 11, Furan-3-yl-{(S)-3-[6-(6-methoxy-5-methyl-pyridin-3-yl)-5,6,7,8-tetrahydro-pyrido[4,3-d]pyrimidin-4-yloxy]-pyrrolidin-1-yl}-methanone] |
| 1190 nM | 16 nM | COc1ncc(N2CCc3ncnc(O[C@H]4CCN(C(=O)c5cccnc5)C4)c3C2)cc1C(F)(F)F [Example 44, {(S)-3-[6-(6-Methoxy-5-trifluoromethyl-pyridin-3-yl)-5,6,7,8-tetrahydro-pyrido[4,3-d]pyrimidin-4-yloxy]-pyrrolidin-1-yl}-pyridin-3-yl-methanone] |
| 872 nM | 24 nM | COc1ncc(N2CCc3ncnc(O[C@H]4CCN(C(=O)c5cncn5C)C4)c3C2)cc1C(F)(F)F [Example 93, {(S)-3-[6-(6-Methoxy-5-trifluoromethyl-pyridin-3-yl)-5,6,7,8-tetrahydro-pyrido[4,3-d]pyrimidin-4-yloxy]-pyrrolidin-1-yl}-(3-methyl-3H-imidazol-4-yl)-methanone] |
| 871 nM | 33 nM | COc1ncc(N2CCc3ncnc(O[C@H]4CCN(C(=O)c5ocnc5C)C4)c3C2)cc1C [Example 18, {(S)-3-[6-(6-Methoxy-5-methyl-pyridin-3-yl)-5,6,7,8-tetrahydro-pyrido[4,3-d]pyrimidin-4-yloxy]-pyrrolidin-1-yl}-(4-methyl-oxazol-5-yl)-methanone] |
| 860 nM | 13 nM | COc1ncc(N2CCc3ncnc(O[C@H]4CCN(C(=O)C5CCOCC5)C4)c3C2)cc1Cl [Example 56, {(S)-3-[6-(5-Chloro-6-methoxy-pyridin-3-yl)-5,6,7,8-tetrahydro-pyrido[4,3-d]pyrimidin-4-yloxy]-pyrrolidin-1-yl}-(tetrahydro-pyran-4-yl)-methanone] |
| 757 nM | 53 nM | COc1ccc(N2CCc3ncnc(O[C@H]4CCN(C(=O)C5CCOCC5)C4)c3C2)cn1 [Example 95, {(S)-3-[6-(6-Methoxy-pyridin-3-yl)-5,6,7,8-tetrahydro-pyrido[4,3-d]pyrimidin-4-yloxy)pyrrolidin-1-yl}-(tetrahydro-pyran-4-yl)-methanone] |
| 489 nM | 23 nM | COc1ncc(N2CCc3ncnc(O[C@H]4CCN(C(=O)CC(C)(C)C)C4)c3C2)cc1C(F)(F)F [Example 62, 1-{(S)-3-[6-(6-Methoxy-5-trifluoromethyl-pyridin-3-yl)-5,6,7,8-tetrahydro-pyrido[4,3-d]pyrimidin-4-yloxy]-pyrrolidin-1-yl}-3,3-dimethyl-butan-1-one] |
| 388 nM | 34 nM | COc1ncc(N2CCc3ncnc(O[C@H]4CCN(C(=O)c5cn[nH]c5)C4)c3C2)cc1C(F)(F)F [Example 49, {(S)-3-[6-(6-Methoxy-5-trifluoromethyl-pyridin-3-yl)-5,6,7,8-tetrahydro-pyrido[4,3-d]pyrimidin-4-yloxy]-pyrrolidin-1-yl}-(1H-pyrazol-4-yl)-methanone] |
| 368 nM | 21 nM | COc1cc(N2CCc3ncnc(O[C@H]4CCN(C(=O)C5CCC(F)(F)CC5)C4)c3C2)cnc1OC [Example 26, (4,4-Difluoro-cyclohexyl)-{(S)-3-[6-(5,6-dimethoxy-pyridin-3-yl)-5,6,7,8-tetrahydro-pyrido[4,3-d]pyrimidin-4-yloxy]-pyrrolidin-1-yl}-methanone] |
| 260 nM | 6 nM | COc1ncc(N2CCc3ncnc(O[C@H]4CCN(C(=O)c5oc(C)nc5C)C4)c3C2)cc1C(F)(F)F [Example 40, (2,4-Dimethyl-oxazol-5-yl)-{(S)-3-[6-(6-methoxy-5-trifluoromethyl-pyridin-3-yl)-5,6,7,8-tetrahydro-pyrido[4,3-d]pyrimidin-4-yloxy]-pyrrolidin-1-yl}-methanone] |
| 106 nM | 7 nM | COc1ncc(N2CCc3ncnc(N[C@H]4CCN(C(=O)[C@H]5CC[C@H](O)CC5)C4)c3C2)cc1C(F)(F)F (single isomer, unassigned) [Example 76] |
| 56 nM | 3 nM | COc1ncc(N2CCc3ncnc(N[C@H]4CCN(C(=O)C5CCOCC5)C4)c3C2)cc1C#N [Example 69, 2-Methoxy-5-{4-[(S)-1-(tetrahydro-pyran-4-carbonyl)-pyrrolidin-3-ylamino]-7,8-dihydro-5H-pyrido[4,3-d]pyrimidin-6-yl}-nicotinonitrile] |

Reference: US8653092B2, “Tetrahydro-pyrido-pyrimidine derivatives” (Novartis AG, priority 2010, dated 2014)
